# Values quoted from earlier work in patent publication US20150283066A1, “VAGINAL DANAZOL COMBINED WITH NON STEROIDAL ANTI INFLAMMATORY DRUGS (NSAIDS) COMPOSITIONS” (MEDIGLOBE LTD, priority 2011, published 2015).
# Conditions: literature (University of Helsinki); stated jointly for NSAIDs and tranexamic acid
smiles,measurement,value
NC[C@H]1CC[C@H](C(=O)O)CC1 [tranexamic acid],reduction of menstrual blood loss,20-60%
